Where two headings read alike, the source gives them in different places.
Legend:
muscarinic receptors = conditions: cited from earlier work
[1] = primate study; cited from earlier work
[2] = test system: peripheral cholinergic receptors; conditions: rats; cited from earlier work
[3] = clinical trials for Alzheimer disease; cited from earlier work
[4] = test system: peripheral cholinergic receptors; conditions: monkeys; cited from earlier work
[5] = 6-month double-blind, placebo-controlled, parallel group trial of xanomeline in patients with Alzheimer disease; type: in vivo, human; conditions: in view of Mirza et al 2003; i.e. 225 mg/day
Excerpt: A close analog of tazomeline, the 3-(4-hexyloxy-1,2,5-thiadiazol-3-yl)-1-methyl-5,6-dihydro-2H-pyridine known as xanomeline and described in U.S. Pat. No. 5,043,345, the disclosure of which is incorporated herein by reference in its entirety, has been disclosed as a muscarinic acetylcholine receptor agonist with reasonable selectivity for the M1 and M4 subtypes. The efficacy of xanomeline, which stimulates muscarinic receptors in the brain and in the periphery was studied in patients with Alzheimer disease in a 6-month double-blind, placebo-controlled, parallel group trial. […] Such side effects prevented the use of doses of xanomeline that could achieve maximum anti-dementia efficacy and reflect stimulation of cholinergic receptors outside the brain.
Dose-limiting adverse events attending the use of drugs that stimulate cholinergic transmission, such as xanomeline, appear to primarily reflect the excessive stimulation of peripheral cholinergic receptors, especially those of the muscarinic type (mAChRs), such that in both healthy volunteers and Alzheimer's patients many of these side effects have been reported for xanomeline; in the patient population this led to a discontinuation rate higher than 50% while the effects on cognition were not robust and mainly seen at the highest doses tested (Mirza 2003).

[6] = cited from earlier work
[7] = cited from earlier work; remark: listed apart in the source

Structure (SMILES): CCCCSc1nsnc1[C@H]1CN2CCC[C@H]1C2 [BuTAC, (5R,6R)-6-(3-butylthio-1,2,5-thiadiazol-4-yl)-1-azabicyclo[3.2.1]octane]
- affinity for muscarinic receptors (muscarinic receptors): high affinity
- vomiting [1]: induced vomiting

Structure (SMILES): CO/N=C/C1=CCCN(C)C1 [milameline, (E)-N-methoxy-1-(1-methyl-1,2,5,6-tetrahydropyridin-3-yl)methanimine]
- doses producing central cholinergic action relative to peripheral action [2]: at doses slightly higher than those stimulating peripheral cholinergic receptors
- maximum tolerated dose [3]: 2 mg four times per day
- doses producing central cholinergic action relative to peripheral action [4]: at doses slightly higher than those stimulating peripheral cholinergic receptors

Structure (SMILES): CCCCCCOc1nsnc1C1=CCCN(C)C1 [xanomeline, 3-(4-hexyloxy-1,2,5-thiadiazol-3-yl)-1-methyl-5,6-dihydro-2H-pyridine]
- maximum tolerated dose as considered in the context of the invention [5]: 75 mg three times per day
- patients who discontinued treatment ([6]; 75 mg xanomeline orally three times daily, mainly adverse events, predominantly gastrointestinal): 59%
- cognitive and behavioral symptoms of Alzheimer disease compared to placebo ([6]; 6-month trial): significantly improve
- discontinuation rate ([6]; Alzheimer's patient population (Mirza 2003)): higher than 50%
- side effects ([6]; bradycardia, gastro-intestinal distress, excessive salivation, sweating): dose-dependent unacceptable side effects
- MTD ([7]; defined by Sramek et al.): 100 mg three times a day
- minimum intolerated dose ([7]; human, in vivo): 115 mg three times a day

Reference: patent publication US20180250270A1, “MUSCARINIC COMBINATION AND ITS USE FOR COMBATING HYPOCHOLINERGIC DISORDERS OF THE CENTRAL NERVOUS SYSTEM” (Chase Pharmaceuticals Corporation, priority 2015, published 2018)
